#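 How tested: cells in 96-well plates exposed to compound for 48 hours at five concentrations. GI50 marks 50% less growth. TGI: concentration producing complete growth inhibition.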
# Columns and labels:
# Assay in all cases: DTP human tumour cell line panel, 48 h
# OVCAR-8 ovarian = system: OVCAR-8 ovarian
# SNB-75 CNS = system: SNB-75 CNS
# RPMI-8226 leukemia = system: RPMI-8226 leukemia
# UACC-257 melanoma = system: UACC-257 melanoma
# SNB-19 CNS = system: SNB-19 CNS
# SK-MEL-2 melanoma = system: SK-MEL-2 melanoma
# 786-0 renal = system: 786-0 renal
# UO-31 renal = system: UO-31 renal
# SN12C renal = system: SN12C renal
# HCT-15 colon = system: HCT-15 colon
# HCC-2998 colon = system: HCC-2998 colon
# NCI-H522 lung = system: NCI-H522 lung
# HCT-116 colon = system: HCT-116 colon
# UACC-62 melanoma = system: UACC-62 melanoma
# COLO 205 colon = system: COLO 205 colon
# RXF 393 renal = system: RXF 393 renal
# NCI/ADR-RES ovarian = system: NCI/ADR-RES ovarian
# HT29 colon = system: HT29 colon
# OVCAR-3 ovarian = system: OVCAR-3 ovarian
# DU-145 prostate = system: DU-145 prostate
# SK-MEL-28 melanoma = system: SK-MEL-28 melanoma
# OVCAR-5 ovarian = system: OVCAR-5 ovarian
# CAKI-1 renal = system: CAKI-1 renal
# HL-60(TB) leukemia = system: HL-60(TB) leukemia
# SK-MEL-5 melanoma = system: SK-MEL-5 melanoma
# NCI-H23 lung = system: NCI-H23 lung
# EKVX NSCLC = system: EKVX NSCLC
# KM12 colon = system: KM12 colon
# MDA-MB-231 breast = system: MDA-MB-231 breast
# SR leukemia = system: SR leukemia
# NCI-H460 lung = system: NCI-H460 lung
# OVCAR-4 ovarian = system: OVCAR-4 ovarian
# A549 NSCLC = system: A549 NSCLC
# ACHN renal = system: ACHN renal
# SW-620 colon = system: SW-620 colon
# A498 renal = system: A498 renal
# MALME-3M melanoma = system: MALME-3M melanoma
# SF-539 CNS = system: SF-539 CNS
# IGROV1 ovarian = system: IGROV1 ovarian
# TK-10 renal = system: TK-10 renal
# SF-268 CNS = system: SF-268 CNS
# MDA-MB-435 = system: MDA-MB-435
# MOLT-4 leukemia = system: MOLT-4 leukemia
# SK-OV-3 ovarian = system: SK-OV-3 ovarian
# MCF7 breast = system: MCF7 breast
# U251 CNS = system: U251 CNS
# M14 melanoma = system: M14 melanoma
# HOP-62 NSCLC = system: HOP-62 NSCLC
# SF-295 CNS = system: SF-295 CNS
# HOP-92 NSCLC = system: HOP-92 NSCLC
# NCI-H226 lung = system: NCI-H226 lung
# LOX IMVI melanoma = system: LOX IMVI melanoma
# CCRF-CEM leukemia = system: CCRF-CEM leukemia
# T-47D breast = system: T-47D breast
# K-562 leukemia = system: K-562 leukemia
# PC-3 prostate = system: PC-3 prostate
structure (smiles),measurement,setting,value
COc1cc(C2CC(c3ccc(SC)cc3)=NN2C(C)=O)cc(OC)c1OC (configuration not stated),GI50,OVCAR-8 ovarian,25.2 µM
same,TGI,OVCAR-8 ovarian,> 100 µM
same,GI50,SNB-75 CNS,4.99 µM
same,TGI,SNB-75 CNS,50.9 µM
same,GI50,RPMI-8226 leukemia,6.51 µM
same,TGI,RPMI-8226 leukemia,96 µM
same,GI50,UACC-257 melanoma,42 µM
same,TGI,UACC-257 melanoma,> 100 µM
same,GI50,SNB-19 CNS,7.04 µM
same,TGI,SNB-19 CNS,> 100 µM
same,GI50,SK-MEL-2 melanoma,10.5 µM
same,TGI,SK-MEL-2 melanoma,60.3 µM
same,GI50,786-0 renal,14.1 µM
same,TGI,786-0 renal,70.4 µM
same,GI50,UO-31 renal,15.9 µM
same,TGI,UO-31 renal,77.4 µM
same,GI50,SN12C renal,28.5 µM
same,TGI,SN12C renal,> 100 µM
same,GI50,HCT-15 colon,5.09 µM
same,TGI,HCT-15 colon,> 100 µM
same,GI50,HCC-2998 colon,12.1 µM
same,TGI,HCC-2998 colon,38.7 µM
same,GI50,NCI-H522 lung,23.8 µM
same,TGI,NCI-H522 lung,> 100 µM
same,GI50,HCT-116 colon,4.28 µM
same,TGI,HCT-116 colon,21 µM
same,GI50,UACC-62 melanoma,9.86 µM
same,TGI,UACC-62 melanoma,> 100 µM
same,GI50,COLO 205 colon,5.38 µM
same,TGI,COLO 205 colon,21.6 µM
same,GI50,RXF 393 renal,13.2 µM
same,TGI,RXF 393 renal,43.6 µM
same,GI50,NCI/ADR-RES ovarian,7.56 µM
same,TGI,NCI/ADR-RES ovarian,> 100 µM
same,GI50,HT29 colon,4.2 µM
same,TGI,HT29 colon,> 100 µM
same,GI50,OVCAR-3 ovarian,3.76 µM
same,TGI,OVCAR-3 ovarian,22.8 µM
same,GI50,DU-145 prostate,16.5 µM
same,TGI,DU-145 prostate,50.6 µM
same,GI50,SK-MEL-28 melanoma,16.6 µM
same,TGI,SK-MEL-28 melanoma,> 100 µM
same,GI50,OVCAR-5 ovarian,44.5 µM
same,TGI,OVCAR-5 ovarian,> 100 µM
same,GI50,CAKI-1 renal,7.11 µM
same,TGI,CAKI-1 renal,70 µM
same,GI50,HL-60(TB) leukemia,2.68 µM
same,TGI,HL-60(TB) leukemia,12.1 µM
same,GI50,SK-MEL-5 melanoma,4.04 µM
same,TGI,SK-MEL-5 melanoma,16.1 µM
same,GI50,NCI-H23 lung,24.3 µM
same,TGI,NCI-H23 lung,> 100 µM
same,GI50,EKVX NSCLC,17.7 µM
same,TGI,EKVX NSCLC,> 100 µM
same,GI50,KM12 colon,3.89 µM
same,TGI,KM12 colon,44.9 µM
same,GI50,MDA-MB-231 breast,20.1 µM
same,TGI,MDA-MB-231 breast,> 100 µM
same,GI50,SR leukemia,1.94 µM
same,TGI,SR leukemia,14.2 µM
same,GI50,NCI-H460 lung,4.14 µM
same,TGI,NCI-H460 lung,16.9 µM
same,GI50,OVCAR-4 ovarian,34.2 µM
same,TGI,OVCAR-4 ovarian,> 100 µM
same,GI50,A549 NSCLC,9.63 µM
same,TGI,A549 NSCLC,> 100 µM
same,GI50,ACHN renal,18.2 µM
same,TGI,ACHN renal,> 100 µM
same,GI50,SW-620 colon,4.49 µM
same,TGI,SW-620 colon,> 100 µM
same,GI50,A498 renal,12.6 µM
same,TGI,A498 renal,49.3 µM
same,GI50,MALME-3M melanoma,53.6 µM
same,TGI,MALME-3M melanoma,> 100 µM
same,GI50,SF-539 CNS,10 µM
same,TGI,SF-539 CNS,38 µM
same,GI50,IGROV1 ovarian,6.38 µM
same,TGI,IGROV1 ovarian,> 100 µM
same,GI50,TK-10 renal,22.9 µM
same,TGI,TK-10 renal,78.1 µM
same,GI50,SF-268 CNS,11.9 µM
same,TGI,SF-268 CNS,> 100 µM
same,GI50,MDA-MB-435,1.95 µM
same,TGI,MDA-MB-435,5.55 µM
same,GI50,MOLT-4 leukemia,5.2 µM
same,TGI,MOLT-4 leukemia,> 100 µM
same,GI50,SK-OV-3 ovarian,17.1 µM
same,TGI,SK-OV-3 ovarian,95.9 µM
same,GI50,MCF7 breast,4.47 µM
same,TGI,MCF7 breast,77.5 µM
same,GI50,U251 CNS,7.27 µM
same,TGI,U251 CNS,> 100 µM
same,GI50,M14 melanoma,3.91 µM
same,TGI,M14 melanoma,38.4 µM
same,GI50,HOP-62 NSCLC,16.1 µM
same,TGI,HOP-62 NSCLC,66.3 µM
same,GI50,SF-295 CNS,1.23 µM
same,TGI,SF-295 CNS,4.64 µM
same,GI50,HOP-92 NSCLC,16 µM
same,TGI,HOP-92 NSCLC,97.1 µM
same,GI50,NCI-H226 lung,19.8 µM
same,TGI,NCI-H226 lung,45.6 µM
same,GI50,LOX IMVI melanoma,7.1 µM
same,TGI,LOX IMVI melanoma,> 100 µM
same,GI50,CCRF-CEM leukemia,9.49 µM
same,TGI,CCRF-CEM leukemia,> 100 µM
same,GI50,T-47D breast,8.9 µM
same,TGI,T-47D breast,> 100 µM
same,GI50,K-562 leukemia,3.47 µM
same,TGI,K-562 leukemia,20.8 µM
same,GI50,PC-3 prostate,16.2 µM
same,TGI,PC-3 prostate,> 100 µM

# — PubChem BioAssay (NCI)
